Patent US20130032547A1, “STABILIZATION AND DISINFECTION OF WASTES USING HIGH ENERGY E-BEAM AND CHEMICAL OXIDANTS” (priority 2011, published 2013)
Entries after “also recorded” stand apart in the source; their conditions may differ.

How the values were obtained:
Salmonella Typhimurium [1] = format: cell-based
[2] = tested on: Escherichia coli (ATCC #25922); format: cell-based; for reduction (in words): test concentration or dose not given here
[3] = tested on: somatic coliphages (phi X 174); format: cell-based, coliphage phi X 174; note: test concentration or dose not given here
[4] = tested on: fecal coliforms (E. coli); assay: Re-growth of fecal coliforms (spiked E. coli) in treated biosolids (U.S. EPA method 1680, MPN); format: cell-based; conditions: for fecal coliforms, Plate count: Sep. 11, 2009
[5] = tested on: estrogenic activity of 17-β-estradiol (E2); human estrogen receptor; assay: Estrogenic activity, YES assay (recombinant yeast); format: cell-based, Saccharomyces cereviciae; for estrogenic activity, E2 spiked (untreated) vs treated samples (in words): test concentration or dose not given here; for reduction of estrogenic activity (in words): test concentration or dose not given here
Poliovirus Type 1 = conditions: cited from earlier work
Salmonella Typhimurium [6] = assay: Re-growth of spiked Salmonella in treated biosolids (U.S. EPA method 1682, MPN); format: cell-based; conditions: for Salmonella, Plate count: Sep. 11, 2009
[7] = Table 25, ClO2 + Irradiated, Oct. 5, 2009
[8] = Table 25, ClO2 + Irradiated, Sep. 18, 2009
[9] = Table 25, ClO2 + Irradiated, Sep. 25, 2009
[10] = Table 26, ClO2 + Irradiated, Oct. 5, 2009
[11] = Table 26, ClO2 + Irradiated, Sep. 18, 2009
[12] = Table 26, ClO2 + Irradiated, Sep. 25, 2009
[13] = Table 23, ClO2 + Irradiated, Oct. 5, 2009
[14] = Table 23, ClO2 + Irradiated, Sep. 18, 2009
[15] = Table 23, ClO2 + Irradiated, Sep. 25, 2009
[16] = Table 24, ClO2 + Irradiated, Oct. 5, 2009
[17] = Table 24, ClO2 + Irradiated, Sep. 18, 2009
[18] = Table 24, ClO2 + Irradiated, Sep. 25, 2009
Throughout, for reduction (in words): test concentration or dose not given here.

[O][Cl+][O-] [Chlorine Dioxide, chlorine dioxide]
log reduction (Salmonella Typhimurium [1]): 3 log
reduction (in words) (Salmonella Typhimurium [1]): did not show any significant reduction
log reduction [2]: 4 to 5 log
log reduction (complete reduction) [2]: approximately 8 log
reduction (in words) [2]: did not exhibit any reduction
inactivation (in words) [3]: effectively eliminated; also recorded: significant reductions
re-growth of fecal coliforms (in words) [4]: no re-growth
fecal coliforms, Plate count ([4]; Table 25 (aerobic sludge inferred), ClO2): 4.27E+07
fecal coliforms MPN/4 g dry wt [4, 7]: <0.1803 MPN/4 g dry wt
fecal coliforms MPN/g dry wt [4, 7]: <0.1803 MPN/g dry wt
fecal coliforms, Plate count ([4]; Table 25, ClO2 + Irradiated): 0.00E+00
fecal coliforms MPN/4 g dry wt [4, 8]: <0.1803 MPN/4 g dry wt
fecal coliforms MPN/g dry wt [4, 8]: <0.1803 MPN/g dry wt
fecal coliforms MPN/4 g dry wt [4, 9]: <0.1803 MPN/4 g dry wt
fecal coliforms MPN/g dry wt [4, 9]: <0.1803 MPN/g dry wt
fecal coliforms MPN/4 g dry wt ([4]; Table 25, ClO2, Oct. 5, 2009): 1.37E+03 MPN/4 g dry wt
fecal coliforms MPN/g dry wt ([4]; Table 25, ClO2, Oct. 5, 2009): 3.44E+02 MPN/g dry wt
fecal coliforms MPN/4 g dry wt ([4]; Table 25, ClO2, Sep. 18, 2009): 8.49E+05 MPN/4 g dry wt
fecal coliforms MPN/g dry wt ([4]; Table 25, ClO2, Sep. 18, 2009): 2.12E+05 MPN/g dry wt
fecal coliforms MPN/4 g dry wt ([4]; Table 25, ClO2, Sep. 25, 2009): 6.47E+03 MPN/4 g dry wt
fecal coliforms MPN/g dry wt ([4]; Table 25, ClO2, Sep. 25, 2009): 1.62E+03 MPN/g dry wt
fecal coliforms, Plate count ([4]; Table 26 (anaerobic sludge inferred), ClO2): 7.26E+06
fecal coliforms MPN/4 g dry wt [4, 10]: <0.1803 MPN/4 g dry wt
fecal coliforms MPN/g dry wt [4, 10]: <0.1803 MPN/g dry wt
fecal coliforms, Plate count ([4]; Table 26, ClO2 + Irradiated): 2.14E+03
fecal coliforms MPN/4 g dry wt [4, 11]: 1.01E+03 MPN/4 g dry wt
fecal coliforms MPN/g dry wt [4, 11]: 2.53E+02 MPN/g dry wt
fecal coliforms MPN/4 g dry wt [4, 12]: <0.1803 MPN/4 g dry wt
fecal coliforms MPN/g dry wt [4, 12]: <0.1803 MPN/g dry wt
fecal coliforms MPN/4 g dry wt ([4]; Table 26, ClO2, Oct. 5, 2009): <0.1803 MPN/4 g dry wt
fecal coliforms MPN/g dry wt ([4]; Table 26, ClO2, Oct. 5, 2009): <0.1803 MPN/g dry wt
fecal coliforms MPN/4 g dry wt ([4]; Table 26, ClO2, Sep. 18, 2009): 1.02E+05 MPN/4 g dry wt
fecal coliforms MPN/g dry wt ([4]; Table 26, ClO2, Sep. 18, 2009): 2.54E+04 MPN/g dry wt
fecal coliforms MPN/4 g dry wt ([4]; Table 26, ClO2, Sep. 25, 2009): 1.67E+03 MPN/4 g dry wt
fecal coliforms MPN/g dry wt ([4]; Table 26, ClO2, Sep. 25, 2009): 4.17E+02 MPN/g dry wt
estrogenic activity, E2 spiked (untreated) vs treated samples (in words) [5]: no significant difference
reduction of estrogenic activity (in words) [5]: does not reduce
time to inactivate clumped poliovirus I aggregates compared to single state viruses (Poliovirus Type 1): 2.7 times longer
re-growth of Salmonella spp. (in words) (Salmonella Typhimurium [6]): no re-growth
Salmonella, Plate count (Salmonella Typhimurium [6]; Table 23 (% total solid 0.0131, aerobic inferred), ClO2): 2.98E+08
Salmonella MPN/4 g (dry weight) (Salmonella Typhimurium [6]; [13]): 2.20E+01 MPN/4 g (dry weight)
Salmonella MPN/4 g (dry weight) based on 2 ml, 1 ml, 0.1 ml (Salmonella Typhimurium [6]; [13]): 2.2E+00 MPN/4 g (dry weight)
Salmonella MPN/ml (wet weight) (Salmonella Typhimurium [6]; [13]): 0.0072 MPN/ml (wet weight)
Salmonella, Plate count (Salmonella Typhimurium [6]; Table 23, ClO2 + Irradiated): 4.43E+05
Salmonella MPN/4 g (dry weight) (Salmonella Typhimurium [6]; [14]): 1.91E+02 MPN/4 g (dry weight)
Salmonella MPN/4 g (dry weight) based on 2 ml, 1 ml, 0.1 ml (Salmonella Typhimurium [6]; [14]): 1.9E+01 MPN/4 g (dry weight)
Salmonella MPN/ml (wet weight) (Salmonella Typhimurium [6]; [14]): 0.0626 MPN/ml (wet weight)
Salmonella MPN/4 g (dry weight) (Salmonella Typhimurium [6]; [15]): 7.15E+01 MPN/4 g (dry weight)
Salmonella MPN/4 g (dry weight) based on 2 ml, 1 ml, 0.1 ml (Salmonella Typhimurium [6]; [15]): 7.1E+00 MPN/4 g (dry weight)
Salmonella MPN/ml (wet weight) (Salmonella Typhimurium [6]; [15]): 0.0234 MPN/ml (wet weight)
Salmonella MPN/4 g (dry weight) (Salmonella Typhimurium [6]; Table 23, ClO2, Oct. 5, 2009): 7.79E+01 MPN/4 g (dry weight)
Salmonella MPN/4 g (dry weight) based on 2 ml, 1 ml, 0.1 ml (Salmonella Typhimurium [6]; Table 23, ClO2, Oct. 5, 2009): 7.8E+00 MPN/4 g (dry weight)
Salmonella MPN/ml (wet weight) (Salmonella Typhimurium [6]; Table 23, ClO2, Oct. 5, 2009): 0.0255 MPN/ml (wet weight)
Salmonella MPN/4 g (dry weight) (Salmonella Typhimurium [6]; Table 23, ClO2, Sep. 18, 2009): 4.91E+03 MPN/4 g (dry weight)
Salmonella MPN/4 g (dry weight) based on 2 ml, 1 ml, 0.1 ml (Salmonella Typhimurium [6]; Table 23, ClO2, Sep. 18, 2009): 4.9E+02 MPN/4 g (dry weight)
Salmonella MPN/ml (wet weight) (Salmonella Typhimurium [6]; Table 23, ClO2, Sep. 18, 2009): 1.6090 MPN/ml (wet weight)
Salmonella MPN/4 g (dry weight) (Salmonella Typhimurium [6]; Table 23, ClO2, Sep. 25, 2009): 3.51E+02 MPN/4 g (dry weight)
Salmonella MPN/4 g (dry weight) based on 2 ml, 1 ml, 0.1 ml (Salmonella Typhimurium [6]; Table 23, ClO2, Sep. 25, 2009): 3.5E+01 MPN/4 g (dry weight)
Salmonella MPN/ml (wet weight) (Salmonella Typhimurium [6]; Table 23, ClO2, Sep. 25, 2009): 0.1151 MPN/ml (wet weight)
Salmonella, Plate count (Salmonella Typhimurium [6]; Table 24 (% total solid 0.0312, anaerobic inferred), ClO2): 3.03E+06
Salmonella MPN/4 g (dry weight) (Salmonella Typhimurium [6]; [16]): 4.41E+01 MPN/4 g (dry weight)
Salmonella MPN/4 g (dry weight) based on 2 ml, 1 ml, 0.1 ml (Salmonella Typhimurium [6]; [16]): 4.4E+00 MPN/4 g (dry weight)
Salmonella MPN/ml (wet weight) (Salmonella Typhimurium [6]; [16]): 0.0344 MPN/ml (wet weight)
Salmonella, Plate count (Salmonella Typhimurium [6]; Table 24, ClO2 + Irradiated): 3.85E+03
Salmonella MPN/4 g (dry weight) (Salmonella Typhimurium [6]; [17]): 6.95E+02 MPN/4 g (dry weight)
Salmonella MPN/4 g (dry weight) based on 2 ml, 1 ml, 0.1 ml (Salmonella Typhimurium [6]; [17]): 7.0E+01 MPN/4 g (dry weight)
Salmonella MPN/ml (wet weight) (Salmonella Typhimurium [6]; [17]): 0.5422 MPN/ml (wet weight)
Salmonella MPN/4 g (dry weight) (Salmonella Typhimurium [6]; [18]): 8.03E+01 MPN/4 g (dry weight)
Salmonella MPN/4 g (dry weight) based on 2 ml, 1 ml, 0.1 ml (Salmonella Typhimurium [6]; [18]): 8.0E+00 MPN/4 g (dry weight)
Salmonella MPN/ml (wet weight) (Salmonella Typhimurium [6]; [18]): 0.0626 MPN/ml (wet weight)
Salmonella MPN/4 g (dry weight) (Salmonella Typhimurium [6]; Table 24, ClO2, Oct. 5, 2009): 8.03E+01 MPN/4 g (dry weight)
Salmonella MPN/4 g (dry weight) based on 2 ml, 1 ml, 0.1 ml (Salmonella Typhimurium [6]; Table 24, ClO2, Oct. 5, 2009): 8.0E+00 MPN/4 g (dry weight)
Salmonella MPN/ml (wet weight) (Salmonella Typhimurium [6]; Table 24, ClO2, Oct. 5, 2009): 0.0626 MPN/ml (wet weight)
Salmonella MPN/4 g (dry weight) (Salmonella Typhimurium [6]; Table 24, ClO2, Sep. 18, 2009): 2.06E+03 MPN/4 g (dry weight)
Salmonella MPN/4 g (dry weight) based on 2 ml, 1 ml, 0.1 ml (Salmonella Typhimurium [6]; Table 24, ClO2, Sep. 18, 2009): 2.1E+02 MPN/4 g (dry weight)
Salmonella MPN/ml (wet weight) (Salmonella Typhimurium [6]; Table 24, ClO2, Sep. 18, 2009): 1.6090 MPN/ml (wet weight)
Salmonella MPN/4 g (dry weight) (Salmonella Typhimurium [6]; Table 24, ClO2, Sep. 25, 2009): 4.46E+02 MPN/4 g (dry weight)
Salmonella MPN/4 g (dry weight) based on 2 ml, 1 ml, 0.1 ml (Salmonella Typhimurium [6]; Table 24, ClO2, Sep. 25, 2009): 4.5E+01 MPN/4 g (dry weight)
Salmonella MPN/ml (wet weight) (Salmonella Typhimurium [6]; Table 24, ClO2, Sep. 25, 2009): 0.3475 MPN/ml (wet weight)

C[C@]12CC[C@@H]3c4ccc(O)cc4CC[C@H]3[C@@H]1CC[C@@H]2O [E2, 17-β-estradiol, reference compound]
upper limit of the dynamic range of the YES assay (saturation) ([5]; E2 standards in DMSO): 60 nM
